Assay results taken from ChEMBL document CHEMBL2413004, “Synthesis and in vitro cytostatic activity of 1,2- and 1,3-diacylglycerophosphates of clofarabine” (Bioorg Med Chem, 2013).

Columns and labels:
Assay type in all cases: functional, cell-based
HeLa = assay: Cytostatic activity against human HeLa cells after 48 hrs by MTT assay
MCF7 = assay: Cytostatic activity against human MCF7 cells after 48 hrs by MTT assay; details: MCF7, 48 h
HL-60 = assay: Cytostatic activity against human HL60 cells after 48 hrs by MTT assay; details: HL-60, 48 h
A549 = assay: Cytostatic activity against human A549 cells after 48 hrs by MTT assay; details: A549, 48 h

| SMILES | IC50 (HeLa) [µM] | IC50 (MCF7) [µM] | IC50 (HL-60) [µM] | IC50 (A549) [µM] |
| --- | --- | --- | --- | --- |
| Nc1nc(Cl)nc2c1ncn2[C@@H]1O[C@H](CO)[C@@H](O)[C@@H]1F [CLOFARABINE] | 50 | 50 | 0.1 | 8 |
| CCCCCCCCCCCCCCCC(=O)OC[C@@H](COP(=O)(O)OC[C@H]1O[C@@H](n2cnc3c(N)nc(Cl)nc32)[C@@H](F)[C@@H]1O)OC(=O)CCCCCCCCCCCCCCC | > 100 | > 100 | 10 | > 100 |

The remaining lines, values ahead:

| IC50 (HeLa) [µM] | IC50 (MCF7) [µM] | IC50 (HL-60) [µM] | IC50 (A549) [µM] | SMILES |
| --- | --- | --- | --- | --- |
| 50 | 40 | 0.8 | > 100 | CCCCCCCCCCCCCC(=O)OC[C@@H](COP(=O)(O)OC[C@H]1O[C@@H](n2cnc3c(N)nc(Cl)nc32)[C@@H](F)[C@@H]1O)OC(=O)CCCCCCCCCCCCC |
| > 100 | 40 | > 100 | > 100 | CCCCCCCCCCCCCC(=O)OCC(COC(=O)CCCCCCCCCCCCC)OP(=O)(O)OC[C@H]1O[C@@H](n2cnc3c(N)nc(Cl)nc32)[C@@H](F)[C@@H]1O |
| 100 | 30 | 55 | 90 | CCCCCCCCCCCCCCCC(=O)OCC(COC(=O)CCCCCCCCCCCCCCC)OP(=O)(O)OC[C@H]1O[C@@H](n2cnc3c(N)nc(Cl)nc32)[C@@H](F)[C@@H]1O |
